Assay results published in patent publication US20070287693A1, “Benzamide Derivatives That Act Upon The Glucokinase Enzyme” (priority 2004, published 2007).

Assay: Plasma protein binding by equilibrium dialysis
Format: in vitro ADME
Details: rat plasma, 37° C., pH 7.4, read-out: % free in plasma
Procedure: 3) Measurements of Plasma Protein Binding of Compounds
The plasma protein binding of compounds was measured using the equilibrium dialysis technique (W. Lindner et al, J. Chromatography, 1996, 677, 1-28). Compound was dialysed at a concentration of 20 μM for 18 hours at 37° C. with plasma and isotonic phosphate buffer pH 7.4 (1 ml of each in the dialysis cell). A Spectrum® 20-cell equilibrium dialyser was used together with Teflon, semi-micro dialysis cells and Spectra/Por®2 membrane discs with a molecular weight cut off 12-14000 Dalton, 47 mm (supplied by PerBio Science UK Ltd, Tattenhall, Cheshire). Plasma and buffer samples are removed following dialysis and analysed using HPLCUV/MS (high performance liquid chromatography with UV and mass spec detection) to give the % free level in plasma. [drawing 39]

## CC[C@@H](CO)Oc1cc(Oc2ccc(C(=O)N3CCC3)cc2)cc(C(=O)Nc2ccn(C)n2)c1 [Example 13, 3-[4-(azetidin-1-ylcarbonyl)phenoxy]-5-{[(1S)-1-(hydroxymethyl)propyl]oxy}-N-(1-methyl-1H-pyrazol-3-yl)benzamide]
  fraction unbound at 18 h, 20 μM: 0.02
